In brackets after ≈: the same amount, converted by molar mass. Like-named read-outs stand apart in the source and are kept apart here.
How the values were obtained:
[1] = chemical stability: retention (%) after heating at 60° C. for 4 hours, by HPLC; type: physicochemical
Procedure: The chemical stability of the present compound was evaluated by determining the retention (%) after heating at 60° C. for 4 hours. In Table 5 are shown the test results together with those for spergualin as reference. The retention was determined by means of high performance liquid chromatography (HPLC). The column was packed with Nucleosil® 5C18. The solvent used for spergualin was a mixture (6:94) of acetonitrile -0.01M sodium pentanesulfonate +0.01M Na2 HPO4 (pH 3), while that for the compounds of this invention was a mixture of acetonitrile -0.005M sodium pentanesulfonate ±0.01M Na2 HPO4 (pH 3). The mixture ratio in the latter case was varied for each particular compound. For instance, a mixing ratio of 10:90 was used for Compound No. 9, while that of 7:93 for Compound No. 22.

[2] = system: mouse leukemia L-1210 cells; test: growth inhibitory activity to cancer cells in vitro (L-1210, 48 hours); type: cell-based; conditions: for inhibition at 5 µg/mL: L1210, 5 mcg/ml; for inhibition at 10 µg/mL: L1210, 10 mcg/ml; for inhibition at 20 µg/mL: L1210, 20 mcg/ml; for inhibition at 40 µg/mL: L1210, 40 mcg/ml; for IC50: L1210, L-1210 cells, read-out: 50% inhibitory concentration
Method in brief: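 L-1210 cells from DBA/2 mouse ascites, cultured at 5×10^4 cells per well in RPMI 1640 with 10% FCS and 5 μM 2-mercaptoethanol, 37° C, CO2, for 48 h with compound. Cell counts by Coulter Counter gave % inhibition (1−T/C)×100, and IC50 was derived across concentrations.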

mouse leukemia L-1210 = test: therapeutic effect on implanted cancer in mice (L-1210, survival over 30 days); type: in vivo, mouse (BDF1); conditions: L1210, ip, 720 h, 6 days; for responders at 6.25 mg/kg / response vs control in vivo at 6.25 mg/kg: 6.25 mg/kg/day i.p.; for responders at 12.5 mg/kg / response vs control in vivo at 12.5 mg/kg: 12.5 mg/kg/day i.p.; for responders at 25 mg/kg / response vs control in vivo at 25 mg/kg: 25 mg/kg/day i.p.; for responders at 50 mg/kg / response vs control in vivo at 50 mg/kg: 50 mg/kg/day i.p.
Method in brief: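 Male BDF1 mice aged 5 weeks received an intraperitoneal inoculation of 10^5 L-1210 mouse leukemia cells. Starting on the inoculation day, test compounds dissolved in physiological saline were injected intraperitoneally once daily for 6 consecutive days, and animals were then followed for 30 days to record survival.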

[3] = acute toxicity in mice (single intraperitoneal administration); conditions: mouse, in vivo, ip, read-out: LD50 (median lethal dose on single administration)
Procedure: In Table 8 median lethal doses (LD50) of typical compounds of this invention are shown, measured in mice upon single intraperitoneal administration, as well as maximum tolerated doses in terms of total dose when a fixed amount per unit body weight was administered intraperitoneally to mice once a day for 6 consecutive days.
*Median lethal dose on single administration.

[4] = cumulative toxicity in mice (maximum tolerated dose, once a day for 6 consecutive days); conditions: mouse, in vivo, ip, i.p. once a day for 6 consecutive days, total dose, read-out: Maximum Tolerated Dose (total dose not causing death)
Method in brief: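 Mice dosed intraperitoneally once a day for 6 consecutive days with a fixed amount per unit body weight. The value is the maximum total dose not causing death.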

[5] = read-out: Growth inhibition (%), (1-T/C) × 100
[6] = read-out: Number of mice survived for 30 days (converted)
[7] = read-out: Prolongation of survival period (%), T/C × 100

Compound | remaining at 4 h ([1]; pH 2, pH 2) | remaining at 4 h ([1]; pH 4, pH 4) | remaining at 4 h ([1]; pH 5, pH 5) | remaining at 4 h ([1]; pH 6, pH 6) | remaining at 4 h ([1]; pH 7, pH 7) | remaining at 4 h ([1]; pH 8, pH 8) | remaining at 4 h ([1]; pH 9, pH 9) | remaining at 4 h ([1]; pH 10, pH 10) | inhibition at 5 µg/mL [2, 5] | inhibition at 10 µg/mL [2, 5] | inhibition at 20 µg/mL [2, 5] | inhibition at 40 µg/mL [2, 5] | IC50 [2] | responders at 6.25 mg/kg (mouse leukemia L-1210; [6]) | response vs control in vivo at 6.25 mg/kg (mouse leukemia L-1210; [7]) | responders at 12.5 mg/kg (mouse leukemia L-1210; [6]) | response vs control in vivo at 12.5 mg/kg (mouse leukemia L-1210; [7]) | responders at 25 mg/kg (mouse leukemia L-1210; [6]) | response vs control in vivo at 25 mg/kg (mouse leukemia L-1210; [7]) | responders at 50 mg/kg (mouse leukemia L-1210; [6]) | other results
COC(NC(=O)CCCCCCNC(=N)N)C(=O)NCCCCNCCCN (racemic) [Compound 9, N-[4-(3-aminopropyl)aminobutyl]-2-(7-guanidinoheptanamido)-2-methoxyethanamide] | 69.3% | 100% | 100% | 100% | 100% | 100% | 97.5% | 97.9% | 35.5% | 45.9% | 62.3% | 78.1% | 12 µg/mL (≈ 29.9 µM) | 100% | > 429% | 100% | > 429% | 0% | 0% | 0% | remaining at 4 h ([1]; pH 3, pH 3): 89.3%; inhibition at 80 µg/mL ([2]; L1210, 80 mcg/ml, read-out: Growth inhibition (%), (1-T/C) × 100): 90.9%; inhibition at 160 µg/mL ([2]; L1210, 160 mcg/ml, read-out: Growth inhibition (%), (1-T/C) × 100): 96%; responders at 0.2 mg/kg (mouse leukemia L-1210; 0.20 mg/kg/day i.p., read-out: Number of mice survived for 30 days (converted)): 0%; response vs control in vivo at 0.2 mg/kg (mouse leukemia L-1210; 0.20 mg/kg/day i.p., read-out: Prolongation of survival period (%), T/C × 100): 114%; responders at 0.39 mg/kg (mouse leukemia L-1210; 0.39 mg/kg/day i.p., read-out: Number of mice survived for 30 days (converted)): 0%; response vs control in vivo at 0.39 mg/kg (mouse leukemia L-1210; 0.39 mg/kg/day i.p., read-out: Prolongation of survival period (%), T/C × 100): 171%; responders at 0.78 mg/kg (mouse leukemia L-1210; 0.78 mg/kg/day i.p., read-out: Number of mice survived for 30 days (converted)): 50%; response vs control in vivo at 0.78 mg/kg (mouse leukemia L-1210; 0.78 mg/kg/day i.p., read-out: Prolongation of survival period (%), T/C × 100): > 300%; responders at 1.56 mg/kg (mouse leukemia L-1210; 1.56 mg/kg/day i.p., read-out: Number of mice survived for 30 days (converted)): 25%; response vs control in vivo at 1.56 mg/kg (mouse leukemia L-1210; 1.56 mg/kg/day i.p., read-out: Prolongation of survival period (%), T/C × 100): > 411%; responders at 3.13 mg/kg (mouse leukemia L-1210; 3.13 mg/kg/day i.p., read-out: Number of mice survived for 30 days (converted)): 100%; response vs control in vivo at 3.13 mg/kg (mouse leukemia L-1210; 3.13 mg/kg/day i.p., read-out: Prolongation of survival period (%), T/C × 100): > 429%; response vs control in vivo at 50 mg/kg (mouse leukemia L-1210; [7]): 0%; LD50 ([3]; mice, single i.p.): 12.5 to 25 mg/kg; MTD [4]: > 75 mg/kg
N=C(N)NCCCC[C@H](O)CC(=O)NC(OCCO)C(=O)NCCCCNCCCN (stereo partly drawn) [Compound 25, N-[4-(3-aminopropyl)aminobutyl]-2-(7-guanidino-3-hydroxyheptanamido)-2-(2-hydroxy)ethoxyethanamide] | 68.9% | 100% | 100% | 100% | 100% | 100% | 97.7% | 95.5% | 20% | 42% | 63.5% | 74.7% | 7.2 µg/mL (≈ 16.1 µM) | 0% | 107% | 0% | 193% | 0% | 229% | 100% | inhibition at 2.5 µg/mL ([2]; L1210, 2.5 mcg/ml, read-out: Growth inhibition (%), (1-T/C) × 100): 9%; response vs control in vivo at 50 mg/kg (mouse leukemia L-1210; [7]): > 429%; LD50 [3]: > 50 mg/kg; MTD [4]: > 300 mg/kg

— patent US4983328A, “N-(4-(3-aminopropyl)aminobutyl)-2-(ω-gua nidino-fatty-acid-amido(-2-substituted-ethanamide, salt thereof, and process for preparation thereof” (Bristol-Myers Company, priority 1981, dated 1991)
